Experimental data published in patent US20110034469A1, “Heterocyclic Compound” (TAKEDA PHARMACEUTICAL COMPANY LIMITED, priority 2009, published 2011).
Where a name gives a salt, the structure may show the parent alone.

What follows are molecules tested on human breast cancer cell MDA-MB-231-Luc (assay: In vivo breast cancer cell tumor regression activity). Settings: orally 100 mg/kg, twice per day for 14 days; subcutaneous MDA-MB-231-Luc tumor in female nude mouse.
Procedure: MDA-MB-231 cells (American Tissue Culture Collection) were suspended in DMEM medium (Invitrogen) containing 10% fetal bovine serum (Cell Culture Bioscience), plated in a 12-well plate at 1×10^5 cells/mL, each well 1 mL, and the cells were cultured. After 24 hr of culture, the medium was removed, 100 μL of OMEM (Invitrogen) containing […] of pGL4 CMV-luc/Neo plasmid and Lipofectamin LTX (Invitrogen) was added to each well for transfection according to the attached instruction manual. After the plasmid DNA introduction is operation for 25 min., the medium was exchanged with DMEM medium, and the cells were further cultured for 72 hr. The introduced cells were suspended in a medium containing […] G418 (Sigma Ltd.) by a trypsin (Invitrogen) treatment, and plated again in a 6-well plate. […] Finally, MDA-MB-231 cells capable of growing in a medium containing […] G418 were treated by a limit dilution method to give a single colony. Luciferin (Promega) was added to MDA-MB-231 cells in each clone, and the chemical luminescence level was measured using ARVO (PerkinElmer) to give MDA-MB-231-Luc.
The human breast cancer cell MDA-MB-231-Luc ([…]) obtained in Experimental Example 5 were suspended in Matrigel solution (BD Bioscience) and transplanted into 6-week-old BALE/c female nude mouse (CLEA Japan, Inc.) by subcutaneous injection. Mice with a tumor engrafted at a size in tumor volume of about 200 mm^3 on day 12-15 post-transplantation were selected and 5 per group were used for the experiment. A 0.5% methylcellulose (Wako Pure Chemical Industries, Ltd.) suspension or 0.1 M PBS solution (NaH2PO4/Na2HPO4, pH 5.8) of the compound was orally administered at a dose of 100 mg/kg, twice per day for 14 days. The tumor diameter was measured on the day of start of the administration and the day of completion of the administration, and the tumor volume was obtained from formula 1.
tumor volume=long diameter×short diameter×short diameter×(½) formula 1
The ratio of the value obtained by subtracting tumor volume on the day of completion of the administration from that on the day of start of the administration to the tumor volume on the day of start of the administration was obtained as a tumor regression rate from the formula 2.
tumor regression rate (%)=(tumor volume on the day of start of administration−tumor volume on the day of completion of administration)/tumor volume on the day of start of administration×100 formula 2

| Structure (SMILES) | tumor regression rate (%) |
| --- | --- |
| CN[C@@H](C)C(=O)N[C@H](C(=O)N1C[C@H]2CCCN2C[C@H]1C(=O)N[C@@H]1CCOc2cc(F)cc(F)c21)C1CCCCC1 [Example 24, (3S,8aR)-2-{(2S)-2-cyclohexyl-2-[(N-methyl-L-alanyl)amino]acetyl}-N-[(4R)-5,7-difluoro-3,4-dihydro-2H-chromen-4-yl]octahydropyrrolo[1,2-a]pyrazine-3-carboxamide dihydrochloride] | 55 |
| CN[C@@H](C)C(=O)N[C@H](C(=O)N1C[C@H]2CCCN2C[C@H]1C(=O)N[C@@H]1CCOc2ccccc21)c1ccccc1.Cl.Cl [Example 19, (3S,8aR)—N-[(4R)-3,4-dihydro-2H-chromen-4-yl]-2-{(2S)-2-[(N-methyl-L-alanyl)amino]-2-phenylacetyl}octahydropyrrolo[1,2-a]pyrazine-3-carboxamide dihydrochloride] | 64 |
| CCO[C@@H]1C[C@@H]2CN(C(=O)[C@@H](NC(=O)[C@H](C)NC)C3CCC(F)(F)CC3)[C@H](C(=O)N[C@@H]3CCOc4ccccc43)CN2C1 [Example 23, (3S,7R,8aR)-2-{(2S)-2-(4,4-difluorocyclohexyl)-2-[(N-methyl-L-alanyl)amino]acetyl}-N-[(4R)-3,4-dihydro-2H-chromen-4-yl]-7-ethoxyoctahydropyrrolo[1,2-a]pyrazine-3-carboxamide] | 74 |
| CCO[C@@H]1C[C@@H]2CN(C(=O)[C@@H](NC(=O)[C@H](C)NC)C3CCCCC3)[C@H](C(=O)N[C@@H]3CCOc4ccccc43)CN2C1 [Example 18, (3S,7R,8aR)-2-{(2S)-2-cyclohexyl-2-[(N-methyl-L-alanyl)amino]acetyl}-N-[(4R)-3,4-dihydro-2H-chromen-4-yl]-7-ethoxyoctahydropyrrolo[1,2-a]pyrazine-3-carboxamide] | 78 |
| CN[C@@H](C)C(=O)N[C@H](C(=O)N1C[C@H]2CCCN2C[C@H]1C(=O)N[C@@H]1CCOc2ccccc21)C1CCC(F)(F)CC1.Cl.Cl [Example 32, (3S,8aR)-2-{(2S)-2-(4,4-difluorocyclohexyl)-2-[(N-methyl-L-alanyl)amino]acetyl}-N-[(4R)-3,4-dihydro-2H-chromen-4-yl]octahydropyrrolo[1,2-a]pyrazine-3-carboxamide dihydrochloride] | 61 |
| CN[C@@H](C)C(=O)N[C@H](C(=O)N1C[C@H]2CCCN2C[C@H]1C(=O)N[C@H]1c2ccccc2C[C@@H]1O)C1CCCCC1.Cl.Cl [Example 26, (3S,8aR)-2-{(2S)-2-cyclohexyl-2-[(N-methyl-L-alanyl)amino]acetyl}-N-[(1S,2S)-2-hydroxy-2,3-dihydro-1H-inden-1-yl]octahydropyrrolo[1,2-a]pyrazine-3-carboxamide dihydrochloride] | 41 |

The molecules below were run against human XIAP_BIR3 domain purified protein (Homo sapiens, UniProt P98170) (assay: Human XIAP binding inhibitory activity (HTRF, b-Smac ligand)). Settings: read-out: XIAP binding inhibitory rate (%) at 3 μM of the test compound.
Chain of human XIAP_BIR3 domain purified protein (P98170 252-356 limits assumed): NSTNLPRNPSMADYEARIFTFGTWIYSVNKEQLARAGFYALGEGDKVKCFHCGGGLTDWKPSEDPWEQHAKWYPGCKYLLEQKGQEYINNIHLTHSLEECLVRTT

| inhibition at 3 µM [%] | Structure (SMILES) |
| --- | --- |
| 97.1 | CN[C@@H](C)C(=O)N[C@H](C(=O)N1C[C@H]2CC(F)(F)CN2C[C@H]1C(=O)N[C@@H]1CCOc2ccccc21)C1CCCCC1 [Example 50, (3S,8aR)-2-{(2S)-2-cyclohexyl-2-[(N-methyl-L-alanyl)amino]acetyl}-N-[(4R)-3,4-dihydro-2H-chromen-4-yl]-7,7-difluorooctahydropyrrolo[1,2-a]pyrazine-3-carboxamide dihydrochloride] |
| 97.3 | CN[C@@H](C)C(=O)N[C@H](C(=O)N1C[C@H]2CCCN2C[C@H]1C(=O)N[C@@H]1CCOc2cc(F)cc(F)c21)C1CCCCC1 [Example 24, (3S,8aR)-2-{(2S)-2-cyclohexyl-2-[(N-methyl-L-alanyl)amino]acetyl}-N-[(4R)-5,7-difluoro-3,4-dihydro-2H-chromen-4-yl]octahydropyrrolo[1,2-a]pyrazine-3-carboxamide dihydrochloride] |
| 93.5 | CN[C@@H](C)C(=O)N[C@H](C(=O)N1C[C@H]2C[C@@](C)(O)CN2C[C@H]1C(=O)N[C@@H]1CCOc2ccccc21)C1CCCCC1 [Example 41, (3S,7R,8aR)-2-{(2S)-2-cyclohexyl-2-[(N-methyl-L-alanyl)amino]acetyl}-N-[(4R)-3,4-dihydro-2H-chromen-4-yl]-7-hydroxy-7-methyloctahydropyrrolo[1,2-a]pyrazine-3-carboxamide dihydrochloride] |
| 99.6 | CCO[C@@H]1C[C@@H]2CN(C(=O)[C@@H](NC(=O)[C@H](C)NC)C3CCCCC3)[C@H](C(=O)N[C@@H]3CCOc4ccccc43)CN2C1 [Example 18, (3S,7R,8aR)-2-{(2S)-2-cyclohexyl-2-[(N-methyl-L-alanyl)amino]acetyl}-N-[(4R)-3,4-dihydro-2H-chromen-4-yl]-7-ethoxyoctahydropyrrolo[1,2-a]pyrazine-3-carboxamide] |
| 96.6 | CN[C@@H](C)C(=O)N[C@H](C(=O)N1C[C@H]2C[C@@H](OCC3CC3)CN2C[C@H]1C(=O)N[C@@H]1CCOc2ccccc21)C1CCCCC1 [Example 82, (3S,7R,8aR)-2-{(2S)-2-cyclohexyl-2-[(N-methyl-L-alanyl)amino]acetyl}-7-(cyclopropylmethoxy)-N-[(4R)-3,4-dihydro-2H-chromen-4-yl]octahydropyrrolo[1,2-a]pyrazine-3-carboxamide] |
| 95.5 | CCO[C@@H]1C[C@@H]2CN(C(=O)[C@@H](NC(=O)[C@H](CC)NC)C3CCCCC3)[C@H](C(=O)N[C@@H]3CCOc4ccccc43)CN2C1 [Example 91, (3S,7R,8aR)-2-[(2S)-2-cyclohexyl-2-{[(2S)-2-(methylamino)butanoyl]amino}acetyl]-N-[(4R)-3,4-dihydro-2H-chromen-4-yl]-7-ethoxyoctahydropyrrolo[1,2-a]pyrazine-3-carboxamide] |
| 97.2 | CN[C@@H](C)C(=O)N[C@H](C(=O)N1C[C@H]2CCCN2C[C@H]1C(=O)N[C@H]1c2ccccc2C[C@H]1O)C1CCCCC1 [Example 27, (3S,8aR)-2-{(2S)-2-cyclohexyl-2-[(N-methyl-L-alanyl)amino]acetyl}-N-[(1S,2R)-2-hydroxy-2,3-dihydro-1H-inden-1-yl]octahydropyrrolo[1,2-a]pyrazine-3-carboxamide dihydrochloride] |
| 99.2 | CN[C@@H](C)C(=O)N[C@@H](CCCNC(=O)OCc1ccccc1)C(=O)N1C[C@H]2CCCN2C[C@H]1C(=O)N[C@@H]1CCCc2ccccc21 [Example 5, benzyl{(4S)-4-[(N-methyl-L-alanyl)amino]-5-oxo-5-[(3S,8aR)-3-((1R)-1,2,3,4-tetrahydronaphthalen-1-ylcarbamoyl)hexahydropyrrolo[1,2-a]pyrazin-2(1H)-yl]pentyl}carbamate dihydrochloride] |

The next lines start with the molecule.

| Structure (SMILES) | inhibition at 3 µM [%] |
| --- | --- |
| CCO[C@@H]1C[C@@H]2CN(C(=O)[C@@H](NC(=O)[C@H](CC)NC)C3CCC(F)(F)CC3)[C@H](C(=O)N[C@@H]3CCOc4ccccc43)CN2C1 [Example 127, (3S,7R,8aR)-2-[(2S)-2-(4,4-difluorocyclohexyl)-2-{[(2S)-2-(methylamino)butanoyl]amino}acetyl]-N-[(4R)-3,4-dihydro-2H-chromen-4-yl]-7-ethoxyoctahydropyrrolo[1,2-a]pyrazine-3-carboxamide] | 98 |
| CN[C@@H](C)C(=O)N[C@@H](CCCCNC(=O)OCc1ccccc1)C(=O)N1C[C@H]2CCCN2C[C@H]1C(=O)N[C@@H]1CCCc2ccccc21 [Example 6, benzyl{(5S)-5-[(N-methyl-L-alanyl)amino]-6-oxo-6-[(3S,8aR)-3-[(1R)-1,2,3,4-tetrahydronaphthalen-1-ylcarbamoyl]hexahydropyrrolo[1,2-a]pyrazin-2(1H)-yl]hexyl}carbamate dihydrochloride] | 98.8 |
| CN[C@@H](C)C(=O)N[C@@H](CCCCNC(=O)c1ccc(C(=O)NCCCC[C@H](NC(=O)[C@H](C)NC)C(=O)N2C[C@H]3CCCN3C[C@H]2C(=O)N[C@@H]2CCCc3ccccc32)cc1)C(=O)N1C[C@H]2CCCN2C[C@H]1C(=O)N[C@@H]1CCCc2ccccc21 [Example 125, N,N′-bis{(5S)-5-[(N-methyl-L-alanyl)amino]-6-oxo-6-[(3S,8aR)-3-[(1R)-1,2,3,4-tetrahydronaphthalen-1-ylcarbamoyl]hexahydropyrrolo[1,2-a]pyrazin-2(1H)-yl]hexyl}benzene-1,4-dicarboxamide] | 98.9 |
| CN[C@@H](C)C(=O)N[C@@H](CCCCNC(=O)CCCCCCCCC(=O)NCCCC[C@H](NC(=O)[C@H](C)NC)C(=O)N1C[C@H]2CCCN2C[C@H]1C(=O)N[C@@H]1CCCc2ccccc21)C(=O)N1C[C@H]2CCCN2C[C@H]1C(=O)N[C@@H]1CCCc2ccccc21 [Example 126, N,N′-bis{(5S)-5-[(N-methyl-L-alanyl)amino]-6-oxo-6-[(3S,8aR)-3-[(1R)-1,2,3,4-tetrahydronaphthalen-1-ylcarbamoyl]hexahydropyrrolo[1,2-a]pyrazin-2(1H)-yl]hexyl}decanediamide] | 99 |
